One may read the IC50 as the concentration that gives 50% inhibition.

The text below walks through data of patent US20240376091A1, “THIADIAZOLEAMIDE DERIVATIVES AND THEIR APPLICATIONS” (ZHEJIANG UNIVERSITY, priority 2021, published 2024).

The first data set has as its target T1, AR (Homo sapiens, UniProt P10275, T878A).
T1 construct: into the androgen-dependent PCa cells (LNCaP); endogenous in cells; host or cells: LNCaP-ARR2PB-eGFP
T1 sequence (P10275 1-920 T878A): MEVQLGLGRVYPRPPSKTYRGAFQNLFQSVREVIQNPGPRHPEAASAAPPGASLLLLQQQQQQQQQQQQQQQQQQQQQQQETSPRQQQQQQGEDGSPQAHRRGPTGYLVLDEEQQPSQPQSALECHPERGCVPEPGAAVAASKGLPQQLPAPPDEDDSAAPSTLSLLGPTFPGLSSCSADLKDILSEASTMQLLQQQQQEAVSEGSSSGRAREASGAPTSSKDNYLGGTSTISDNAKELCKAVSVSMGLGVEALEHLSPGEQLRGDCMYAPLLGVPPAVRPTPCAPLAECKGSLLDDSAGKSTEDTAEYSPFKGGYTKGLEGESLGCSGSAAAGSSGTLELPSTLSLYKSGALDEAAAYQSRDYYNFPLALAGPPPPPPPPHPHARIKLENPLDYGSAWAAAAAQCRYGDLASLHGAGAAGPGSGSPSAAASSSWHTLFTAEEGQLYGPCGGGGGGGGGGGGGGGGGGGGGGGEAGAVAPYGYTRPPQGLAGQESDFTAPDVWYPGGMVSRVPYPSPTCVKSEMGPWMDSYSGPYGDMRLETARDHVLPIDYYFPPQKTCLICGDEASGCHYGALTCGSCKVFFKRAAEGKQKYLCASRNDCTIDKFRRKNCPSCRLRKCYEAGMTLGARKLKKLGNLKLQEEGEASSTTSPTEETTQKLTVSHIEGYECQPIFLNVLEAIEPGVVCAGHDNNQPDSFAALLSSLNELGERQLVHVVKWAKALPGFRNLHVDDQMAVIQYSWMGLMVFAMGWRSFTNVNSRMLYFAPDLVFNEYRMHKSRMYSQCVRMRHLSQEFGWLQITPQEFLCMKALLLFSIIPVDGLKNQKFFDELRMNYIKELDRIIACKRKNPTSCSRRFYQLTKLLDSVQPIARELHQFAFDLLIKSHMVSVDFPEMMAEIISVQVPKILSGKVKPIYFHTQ
Briefly: AR transcriptional activity, LNCaP-ARR2PB-eGFP reporter cells. The format is cell-based. Particulars: read-out: IC50 AR transcriptional activities. From the text:
Detection principles: We conducted a stable transfection of promoter ARR2PB known for its strong AR responsiveness, into the androgen-dependent PCa cells (LNCaP). The expression of enhanced green fluorescent protein (eGFP) is depending on the degree of activation of AR. Therefore, LNCaP-ARR2PB-eGFP cell line could quantitatively determine the AR antagonistic activities of the compounds by evaluating the expression of eGFP.
As for `C/C(Cc1nsc(NC(=O)c2cc(-c3cccc(C(F)(F)F)c3)oc2C)n1)=N\O` [Compound A-69, N-(3-(2-(hydroxyimino)propyl)-1,2,4-thiadiazol-5-yl)-2-methyl-5-(3-(trifluoromethyl)phenyl)furan-3-carboxamide], the IC50 amounted to 540 nM.

For `CCN(CC)C(C)Cc1nsc(NC(=O)c2cc(-c3cccc(C(F)(F)F)c3)oc2C)n1` (stereo not shown) [Compound A-39, N-(3-(2-(diethylamino)propyl)-1,2,4-thiadiazol-5-yl)-2-methyl-5-(3-(trifluoromethyl)phenyl)furan-3-carboxamide], the IC50 is 120 nM.

In the case of `CC(=O)Cc1nsc(NC(=O)c2cc(-c3cccc(Cl)c3)oc2C)n1` [Compound A-8, 5-(3-Chlorophenyl)-2-methyl-N-(3-(2-oxopropyl)-1,2,4-thiadiazol-5-yl)furan-3-carboxamide], the IC50 worked out at 1710 nM.

On to `Cc1oc(-c2cccc(C(F)(F)F)c2)cc1C(=O)Nc1nc(CC(C)(F)F)ns1` [Compound A-85, N-(3-(2,2-difluoropropyl)-1,2,4-thiadiazol-5-yl)-2-methyl-5-(3-(trifluoromethyl)phenyl) furan-3-carboxamide], for which the IC50 was 770 nM.

`CCN(CC)Cc1nsc(NC(=O)c2cc(-c3cccc(C(F)(F)F)c3)oc2C)n1` [Compound A-107, N-(3-((diethylamino)methyl)-1,2,4-thiadiazol-5-yl)-2-methyl-5-(3-(trifluoromethyl)phenyl)furan-3-carboxamide]: the IC50 came to 1770 nM.

As for `CC(=O)Cc1nsc(NC(=O)c2cc(-c3cccc(OC(F)F)c3)oc2C(F)(F)F)n1` [Compound E-5, 5-(3-(Difluoromethoxy)phenyl)-N-(3-(2-oxopropyl)-1,2,4-thiadiazol-5-yl)-2-(trifluoro-methyl)furan-3-carboxamide], the IC50 was found to be 1480 nM.

As for `CC(=O)Cc1nsc(NC(=O)c2cc(-c3cccc(C#N)c3)oc2C)n1` [Compound A-3, 5-(3-Cyanophenyl)-2-methyl-N-(3-(2-oxopropyl)-1,2,4-thiadiazol-5-yl)furan-3-carboxamide], the IC50 was 320 nM.

For `Cc1oc(-c2cccc(C(F)(F)F)c2)cc1C(=O)Nc1nc(CCl)ns1` [Compound A-105, N-(3-(chloromethyl)-1,2,4-thiadiazol-5-yl)-2-methyl-5-(3-(trifluoromethyl)phenyl)furan-3-carboxamide], the IC50 came to 22900 nM.

With `CC(=O)Cc1nsc(NC(=O)c2cc(-c3ccccc3)oc2C)n1` [Compound A-5, 2-Methyl-N-(3-(2-oxopropyl)-1,2,4-thiadiazol-5-yl)-5-phenylfuran-3-carboxamide], the IC50 amounted to 950 nM.

In the case of `CO/N=C(\C)Cc1nsc(NC(=O)c2cc(-c3cccc(C(F)(F)F)c3)oc2C)n1` [Compound A-70, N-(3-(2-(methoxyimino)propyl)-1,2,4-thiadiazol-5-yl)-2-methyl-5-(3-(trifluoromethyl)phenyl)furan-3-carboxamide], the IC50 came out at 880 nM.

Take `O=C(Nc1nc(CN2CCCCC2)ns1)c1csc(-c2cccc(OC(F)F)c2)c1` [Compound D-56, 5-(3-(Difluoromethoxy)phenyl)-N-(3-(piperidin-1-ylmethyl)-1,2,4-thiadiazol-5-yl)thiophene-3-carboxamide]: the IC50 is 42100 nM.

In the case of `CC(Cc1nsc(NC(=O)c2coc(-c3cccc(C#N)c3)c2)n1)N1CCCC1` (stereo not shown) [Compound B-12, 5-(3-Cyanophenyl)-N-(3-(2-(pyrrolidin-1-yl)propyl)-1,2,4-thiadiazol-5-yl)furan-3-carboxamide], the IC50 worked out at 23300 nM.

Another data set has as its system LNCaP xenograft. Briefly: LNCaP xenograft model in vivo. Particulars: intratumor injection 2.5 mg/kg/week.
Procedure: Methods: LNCaP cells were injected to the Male CB17 SCID mice (6-8 weeks old). Once tumor size reached target value, the mice were randomized into three groups with 6-8 mice per group. […] The mice weight and tumor volume were periodically recorded. Finally, the tumors were harvested.
Take `CNC(=O)c1ccc(N2C(=S)N(c3ccc(C#N)c(C(F)(F)F)c3)C(=O)C2(C)C)cc1F` [Enzalutamide, reference compound]: the body weight result was “no significant loss of body weight”.
